Experimental data published in the supplement of paper PMC10307832.

How the values were obtained:
Experiment in all cases: relative viability (nuclei count vs DMSO), 5 days (fraction); higher = more cells survive
[1] = compound: Cn1nnc2c(C(N)=O)ncn2c1=O [Temozolomide] + Cc1cc(Nc2cc(N3CCN(C)CC3)nc(Sc3ccc(NC(=O)C4CC4)cc3)n2)n[nH]1 [Tozasertib] (partner 0.1 µM)
Procedure, shortened: (§1)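 Relative viability equals treated-well nuclei counts divided by vehicle-well nuclei counts. Counts came from 4× images of lung cancer cell lines grown in 1536-well plates for 5 days after pin-tool dosing on the day after seeding. Dosing used one drug alone or a fixed anchor-drug dose plus five library-drug doses (not always all listed) in √10 steps, and values are medians of duplicate plates.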

[2] = compound: C[C@@H](C(=O)N[C@@H](C1CCCCC1)C(=O)N2CCC[C@H]2C(=O)N[C@@H]3[C@@H](CC4=CC=CC=C34)OCC#CC#CCO[C@@H]5CC6=CC=CC=C6[C@@H]5NC(=O)[C@@H]7CCCN7C(=O)[C@H](C8CCCCC8)NC(=O)[C@H](C)NC)NC [AZD5582] + CS(=O)(=O)N1CCN(Cc2cc3nc(-c4cccc5[nH]ncc45)nc(N4CCOCC4)c3s2)CC1 [Pictilisib] (partner 1 µM)
Procedure, shortened: as §1

[3] = compound: C[C@@H](C(=O)N[C@@H](C1CCCCC1)C(=O)N2CCC[C@H]2C(=O)N[C@@H]3[C@@H](CC4=CC=CC=C34)OCC#CC#CCO[C@@H]5CC6=CC=CC=C6[C@@H]5NC(=O)[C@@H]7CCCN7C(=O)[C@H](C8CCCCC8)NC(=O)[C@H](C)NC)NC [AZD5582] + COc1cc2c(Oc3ccc(NC(=O)C4(C(=O)Nc5ccc(F)cc5)CC4)cc3F)ccnc2cc1OCCCN1CCOCC1 [Foretinib] (partner 0.25 µM)
Procedure, shortened: as §1

[4] = compound: Cn1nnc2c(C(N)=O)ncn2c1=O [Temozolomide] + O=C(c1cc(Cc2n[nH]c(=O)c3ccccc23)ccc1F)N1CCN(C(=O)C2CC2)CC1 [Olaparib] (partner 8 µM)
Procedure, shortened: as §1

Cell Line	relative viability ([1]; first compound 0.2 µM)	relative viability ([1]; first compound 0.6325 µM)	relative viability ([1]; first compound 2 µM)	relative viability ([1]; first compound 6.325 µM)	relative viability ([1]; first compound 20 µM)	relative viability ([2]; first compound 0.001581 µM)	relative viability ([2]; first compound 0.005 µM)	relative viability ([2]; first compound 0.01581 µM)	relative viability ([2]; first compound 0.05 µM)	relative viability ([3]; first compound 0.001581 µM)	relative viability ([3]; first compound 0.005 µM)	relative viability ([3]; first compound 0.01581 µM)	relative viability ([3]; first compound 0.05 µM)	relative viability ([4]; first compound 0.2 µM)	relative viability ([4]; first compound 0.6325 µM)	relative viability ([4]; first compound 2 µM)	relative viability ([4]; first compound 6.325 µM)	relative viability ([4]; first compound 20 µM)
NCI-H650	0.704	0.771	0.735	0.681	0.804	0.645	0.702	0.759	0.589	1	0.958	0.91	0.794	0.387	0.39	0.358	0.274	0.202
NCI-H2085	0.735	0.784	0.86	0.817	0.855	0.572	0.44	0.488	0.584	1.06	0.776	0.924	0.698	0.773	0.765	0.797	0.677	0.491
RERF-LC-KJ	0.535	0.465	0.538	0.504	0.499	0.471	–	0.541	0.392	0.758	0.836	0.855	0.924	0.975	1.05	0.998	0.846	0.799
NCI-H727	0.54	0.629	0.764	0.591	0.531	0.258	0.4	0.413	0.257	0.867	1.03	1.01	0.825	–	0.681	0.791	0.516	0.55
NCI-H1651	0.716	0.779	0.674	0.684	0.684	0.616	0.656	0.539	0.723	0.714	0.883	–	1.16	0.187	0.177	0.173	0.145	0.0979
LCLC-97TM1	0.186	0.242	0.212	0.184	0.191	–	0.244	0.15	0.154	0.913	0.94	0.908	0.958	0.512	0.447	0.436	0.238	0.226
NCI-H1734	0.305	0.251	0.242	0.284	0.278	0.455	0.514	0.451	0.631	0.814	0.892	0.968	1.11	0.708	0.586	0.577	0.614	0.373
NCI-H2126	0.767	0.864	0.909	0.782	0.87	0.505	0.556	0.436	0.533	1.15	1.19	1.05	0.969	0.875	0.903	0.852	0.921	0.831
PC-3 [JPC-3]	0.935	0.945	0.934	0.901	0.431	0.664	0.543	0.607	0.332	0.866	0.809	0.96	0.488	0.909	1.16	1.12	0.988	0.435
NCI-H1993	0.566	0.618	0.616	0.577	0.639	0.916	0.807	0.796	0.859	0.792	0.786	0.854	0.715	0.913	1.34	1.2	0.94	0.836
NCI-H2087	0.273	0.219	0.292	0.286	0.25	0.871	1.02	0.905	0.986	0.957	1.24	1.05	1.16	0.698	0.723	0.698	0.502	0.378
HOP-62	0.534	0.418	0.367	0.376	0.348	0.445	0.655	0.256	0.62	1.01	1.11	1.06	1.05	0.407	0.31	0.429	0.277	0.129
HCC-15	0.522	0.412	0.5	0.384	0.599	0.566	0.596	0.621	0.509	0.74	0.805	0.959	0.75	0.791	0.767	0.684	0.637	0.589
NCI-H2405	0.716	0.722	0.791	0.72	0.776	0.459	0.856	–	0.612	1	1.07	0.987	1.06	0.896	0.831	0.998	0.832	0.492
COR-L 105	0.342	0.386	0.453	0.378	0.371	0.413	0.505	0.288	0.412	1.02	1.32	0.888	1.16	0.585	0.577	0.636	0.661	0.693
PC-14	0.439	0.608	0.558	0.293	0.0992	0.501	0.549	0.598	0.295	0.903	1.06	0.938	0.945	0.279	0.371	0.228	0.171	0.153
NCI-H1975	0.975	0.718	0.823	0.699	0.737	0.3	0.348	0.315	0.409	0.926	1.17	1.06	1.2	0.779	0.77	0.798	0.744	0.699
